Test results as given in ChEMBL document CHEMBL5291721, “A preclinical secondary pharmacology resource illuminates target-adverse drug reaction associations of marketed drugs” (Nat Commun, 2023).

Columns and labels:
Adenosine receptor A1 = target: T1, Adenosine receptor A1 (Homo sapiens, UniProt P30542)
T1 sequence (P30542 whole entry): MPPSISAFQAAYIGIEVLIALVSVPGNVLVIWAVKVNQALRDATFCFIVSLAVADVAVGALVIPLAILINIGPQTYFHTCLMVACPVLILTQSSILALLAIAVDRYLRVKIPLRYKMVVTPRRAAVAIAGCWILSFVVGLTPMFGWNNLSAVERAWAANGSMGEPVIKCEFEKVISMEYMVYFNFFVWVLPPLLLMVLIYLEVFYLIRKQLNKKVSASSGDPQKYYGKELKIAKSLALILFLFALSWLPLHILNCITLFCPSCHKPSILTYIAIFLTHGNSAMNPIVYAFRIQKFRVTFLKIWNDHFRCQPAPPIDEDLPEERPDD

[1] = target: Beta-1 adrenergic receptor (Homo sapiens, UniProt P08588); assay type: functional
[2] = target: Voltage-dependent L-type calcium channel subunit alpha-1C (Rattus norvegicus, UniProt P22002); assay type: functional
[3] = target: T2, Gastrin/cholecystokinin type B receptor (Homo sapiens, UniProt P32239)
T2 sequence (P32239 whole entry): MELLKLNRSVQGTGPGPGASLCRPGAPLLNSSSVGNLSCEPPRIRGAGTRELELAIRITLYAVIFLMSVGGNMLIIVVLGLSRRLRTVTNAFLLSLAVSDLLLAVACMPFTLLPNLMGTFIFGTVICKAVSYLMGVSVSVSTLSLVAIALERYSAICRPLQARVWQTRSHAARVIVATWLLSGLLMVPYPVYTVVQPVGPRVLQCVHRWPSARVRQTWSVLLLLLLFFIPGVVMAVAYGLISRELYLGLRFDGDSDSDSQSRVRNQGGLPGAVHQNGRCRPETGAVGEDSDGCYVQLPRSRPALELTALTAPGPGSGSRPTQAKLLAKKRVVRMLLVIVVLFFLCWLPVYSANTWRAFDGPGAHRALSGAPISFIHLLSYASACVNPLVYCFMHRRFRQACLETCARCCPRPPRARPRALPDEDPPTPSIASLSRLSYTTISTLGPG

[4] = target: Neuronal acetylcholine receptor subunit alpha-4 (Homo sapiens, UniProt P43681)
D(1A) dopamine receptor = D(1A) dopamine receptor (Homo sapiens, UniProt P21728); assay type: functional, cell-based
Histamine H2 receptor = Histamine H2 receptor (Homo sapiens, UniProt P25021); assay type: functional, cell-based
[5] = target: Kappa-type opioid receptor (Homo sapiens, UniProt P41145)
[6] = target: T3, Prostaglandin G/H synthase 1 (Rattus norvegicus, UniProt Q63921); assay type: functional
T3 sequence (Q63921 whole entry): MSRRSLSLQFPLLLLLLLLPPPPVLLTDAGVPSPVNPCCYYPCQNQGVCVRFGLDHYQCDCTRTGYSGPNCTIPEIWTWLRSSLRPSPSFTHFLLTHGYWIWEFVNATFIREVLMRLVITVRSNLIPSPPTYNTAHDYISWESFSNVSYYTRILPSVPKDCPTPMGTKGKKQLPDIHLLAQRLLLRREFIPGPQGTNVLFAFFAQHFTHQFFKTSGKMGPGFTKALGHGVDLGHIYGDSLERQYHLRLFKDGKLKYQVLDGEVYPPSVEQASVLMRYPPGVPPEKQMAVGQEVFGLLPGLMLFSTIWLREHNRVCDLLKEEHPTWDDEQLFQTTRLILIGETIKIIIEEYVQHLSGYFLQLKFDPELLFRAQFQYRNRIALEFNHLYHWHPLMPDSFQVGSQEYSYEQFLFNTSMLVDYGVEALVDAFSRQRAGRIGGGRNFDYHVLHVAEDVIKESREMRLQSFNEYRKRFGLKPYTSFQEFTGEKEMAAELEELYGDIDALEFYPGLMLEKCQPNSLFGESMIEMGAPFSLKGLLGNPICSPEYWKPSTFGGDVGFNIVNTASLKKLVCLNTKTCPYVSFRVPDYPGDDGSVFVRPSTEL

[7] = target: T4, Amine oxidase [flavin-containing] A (Homo sapiens, UniProt P21397); assay type: functional
T4 sequence (P21397 whole entry): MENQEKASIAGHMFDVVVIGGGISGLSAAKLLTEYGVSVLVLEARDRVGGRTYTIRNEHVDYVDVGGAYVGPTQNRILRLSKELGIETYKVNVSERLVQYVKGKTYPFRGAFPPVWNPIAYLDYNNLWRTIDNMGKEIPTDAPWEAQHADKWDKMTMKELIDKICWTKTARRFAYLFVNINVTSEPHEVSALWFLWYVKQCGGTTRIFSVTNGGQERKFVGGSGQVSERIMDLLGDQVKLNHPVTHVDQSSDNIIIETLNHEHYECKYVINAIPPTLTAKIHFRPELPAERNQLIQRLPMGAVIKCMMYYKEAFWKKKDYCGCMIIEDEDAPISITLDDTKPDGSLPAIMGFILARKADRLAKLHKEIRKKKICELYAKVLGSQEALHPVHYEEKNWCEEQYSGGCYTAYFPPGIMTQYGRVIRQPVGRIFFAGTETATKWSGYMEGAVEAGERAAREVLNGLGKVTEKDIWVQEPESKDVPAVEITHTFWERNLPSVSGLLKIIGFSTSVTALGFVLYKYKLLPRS

[8] = target: cGMP-inhibited 3',5'-cyclic phosphodiesterase 3A (Homo sapiens, UniProt Q14432); assay type: functional
D(3) dopamine receptor = D(3) dopamine receptor (Homo sapiens, UniProt P35462)
[9] = target: T5, Alpha-1A adrenergic receptor (Homo sapiens, UniProt P35348); assay type: functional, cell-based
T5 sequence (P35348 whole entry): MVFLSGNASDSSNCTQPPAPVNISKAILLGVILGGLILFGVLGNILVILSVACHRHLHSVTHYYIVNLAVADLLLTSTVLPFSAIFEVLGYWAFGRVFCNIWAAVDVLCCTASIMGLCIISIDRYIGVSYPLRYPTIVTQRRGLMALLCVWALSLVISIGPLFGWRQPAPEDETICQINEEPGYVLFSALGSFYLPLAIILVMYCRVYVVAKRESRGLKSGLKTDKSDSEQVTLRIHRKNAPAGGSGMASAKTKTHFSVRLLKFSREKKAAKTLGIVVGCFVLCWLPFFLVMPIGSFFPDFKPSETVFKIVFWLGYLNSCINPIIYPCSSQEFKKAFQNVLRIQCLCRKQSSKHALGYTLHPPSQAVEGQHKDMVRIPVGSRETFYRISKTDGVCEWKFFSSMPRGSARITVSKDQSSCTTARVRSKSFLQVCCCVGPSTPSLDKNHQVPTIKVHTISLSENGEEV

Histamine H3 receptor = Histamine H3 receptor (Homo sapiens, UniProt Q9Y5N1)
Further: assay procedure not described here.

D(3) dopamine receptor, sequence (P35462 whole entry): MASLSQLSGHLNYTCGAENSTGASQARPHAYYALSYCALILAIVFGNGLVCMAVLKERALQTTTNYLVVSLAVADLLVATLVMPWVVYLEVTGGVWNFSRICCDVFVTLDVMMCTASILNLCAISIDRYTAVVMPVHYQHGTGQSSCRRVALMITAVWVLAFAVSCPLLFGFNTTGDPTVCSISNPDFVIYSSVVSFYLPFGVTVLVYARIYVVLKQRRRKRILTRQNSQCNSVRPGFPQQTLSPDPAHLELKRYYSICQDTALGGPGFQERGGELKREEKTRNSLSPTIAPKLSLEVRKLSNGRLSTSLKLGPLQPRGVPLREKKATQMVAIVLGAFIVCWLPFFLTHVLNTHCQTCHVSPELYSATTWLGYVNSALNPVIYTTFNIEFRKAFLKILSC
Histamine H2 receptor, sequence (P25021 whole entry): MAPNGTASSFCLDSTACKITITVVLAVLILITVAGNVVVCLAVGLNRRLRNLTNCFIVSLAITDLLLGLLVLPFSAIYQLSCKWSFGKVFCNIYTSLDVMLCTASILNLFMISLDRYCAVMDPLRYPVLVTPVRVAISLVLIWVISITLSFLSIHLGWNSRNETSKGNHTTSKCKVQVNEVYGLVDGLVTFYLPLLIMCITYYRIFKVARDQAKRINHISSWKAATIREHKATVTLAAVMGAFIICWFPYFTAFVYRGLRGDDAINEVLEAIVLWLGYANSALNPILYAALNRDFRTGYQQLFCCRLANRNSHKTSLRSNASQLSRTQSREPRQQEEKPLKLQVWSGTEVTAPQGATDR
Voltage-dependent L-type calcium channel subunit alpha-1C, sequence (P22002 whole entry): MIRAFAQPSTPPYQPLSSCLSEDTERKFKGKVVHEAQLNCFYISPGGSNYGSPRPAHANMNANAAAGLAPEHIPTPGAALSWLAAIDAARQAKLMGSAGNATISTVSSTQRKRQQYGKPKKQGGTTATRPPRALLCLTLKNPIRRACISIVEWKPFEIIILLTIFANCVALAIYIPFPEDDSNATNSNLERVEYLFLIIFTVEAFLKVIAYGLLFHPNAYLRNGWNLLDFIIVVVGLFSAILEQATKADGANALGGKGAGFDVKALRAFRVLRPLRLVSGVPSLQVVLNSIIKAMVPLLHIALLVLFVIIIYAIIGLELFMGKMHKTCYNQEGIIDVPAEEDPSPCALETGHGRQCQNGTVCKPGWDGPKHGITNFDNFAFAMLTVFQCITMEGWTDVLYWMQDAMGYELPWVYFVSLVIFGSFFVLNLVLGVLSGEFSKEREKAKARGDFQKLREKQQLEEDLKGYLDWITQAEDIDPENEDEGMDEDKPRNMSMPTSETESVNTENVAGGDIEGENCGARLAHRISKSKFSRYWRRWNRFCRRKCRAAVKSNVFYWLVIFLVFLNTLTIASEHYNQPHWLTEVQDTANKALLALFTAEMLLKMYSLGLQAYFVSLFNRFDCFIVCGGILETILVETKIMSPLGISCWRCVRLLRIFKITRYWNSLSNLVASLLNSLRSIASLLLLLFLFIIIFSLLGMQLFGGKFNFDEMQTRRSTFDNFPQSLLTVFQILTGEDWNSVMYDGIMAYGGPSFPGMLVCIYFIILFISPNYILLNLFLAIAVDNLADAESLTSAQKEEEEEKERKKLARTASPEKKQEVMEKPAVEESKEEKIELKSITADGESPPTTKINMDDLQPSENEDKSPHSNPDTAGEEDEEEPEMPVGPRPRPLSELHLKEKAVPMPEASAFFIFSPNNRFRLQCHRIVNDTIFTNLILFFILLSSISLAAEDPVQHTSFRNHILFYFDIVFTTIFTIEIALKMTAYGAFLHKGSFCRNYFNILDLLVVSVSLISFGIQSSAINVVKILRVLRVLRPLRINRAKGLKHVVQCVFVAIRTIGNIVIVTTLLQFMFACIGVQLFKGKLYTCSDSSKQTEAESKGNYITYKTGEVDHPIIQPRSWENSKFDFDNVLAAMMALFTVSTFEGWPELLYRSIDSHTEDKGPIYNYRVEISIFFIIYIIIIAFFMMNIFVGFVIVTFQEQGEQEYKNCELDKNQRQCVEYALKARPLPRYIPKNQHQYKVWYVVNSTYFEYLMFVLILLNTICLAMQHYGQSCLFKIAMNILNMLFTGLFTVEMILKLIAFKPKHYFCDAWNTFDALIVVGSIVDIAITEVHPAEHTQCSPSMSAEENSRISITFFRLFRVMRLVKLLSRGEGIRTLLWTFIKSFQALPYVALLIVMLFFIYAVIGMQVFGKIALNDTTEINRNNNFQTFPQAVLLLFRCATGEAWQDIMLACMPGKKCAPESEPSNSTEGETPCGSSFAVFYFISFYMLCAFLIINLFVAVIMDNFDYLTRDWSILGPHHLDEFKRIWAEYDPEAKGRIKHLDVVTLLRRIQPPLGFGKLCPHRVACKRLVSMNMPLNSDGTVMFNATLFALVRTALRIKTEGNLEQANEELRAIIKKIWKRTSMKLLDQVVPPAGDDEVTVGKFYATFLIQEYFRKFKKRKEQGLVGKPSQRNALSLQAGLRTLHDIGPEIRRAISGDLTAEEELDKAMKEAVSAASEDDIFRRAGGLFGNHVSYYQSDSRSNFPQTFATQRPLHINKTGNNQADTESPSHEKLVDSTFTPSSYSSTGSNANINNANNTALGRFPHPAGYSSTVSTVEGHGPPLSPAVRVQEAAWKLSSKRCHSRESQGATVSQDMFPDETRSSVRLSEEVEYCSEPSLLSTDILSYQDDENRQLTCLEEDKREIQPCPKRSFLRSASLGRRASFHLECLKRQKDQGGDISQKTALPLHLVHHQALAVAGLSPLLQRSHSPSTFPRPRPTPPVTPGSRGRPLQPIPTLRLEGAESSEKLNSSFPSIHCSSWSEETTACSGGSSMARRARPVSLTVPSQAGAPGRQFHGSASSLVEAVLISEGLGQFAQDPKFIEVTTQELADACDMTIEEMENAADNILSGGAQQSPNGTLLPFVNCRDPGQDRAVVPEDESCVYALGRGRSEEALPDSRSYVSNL
D(1A) dopamine receptor, sequence (P21728 whole entry): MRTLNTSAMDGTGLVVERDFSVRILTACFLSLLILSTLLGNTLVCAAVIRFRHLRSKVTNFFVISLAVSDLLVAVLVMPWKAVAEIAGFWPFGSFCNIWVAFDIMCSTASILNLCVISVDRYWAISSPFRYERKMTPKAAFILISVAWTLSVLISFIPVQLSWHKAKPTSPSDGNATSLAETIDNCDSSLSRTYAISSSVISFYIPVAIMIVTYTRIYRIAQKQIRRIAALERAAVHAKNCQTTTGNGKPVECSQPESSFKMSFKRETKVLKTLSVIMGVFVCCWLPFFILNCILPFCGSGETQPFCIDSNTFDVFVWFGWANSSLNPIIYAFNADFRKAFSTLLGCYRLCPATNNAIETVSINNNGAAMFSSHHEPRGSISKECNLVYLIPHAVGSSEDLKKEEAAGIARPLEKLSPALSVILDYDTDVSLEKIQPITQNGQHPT
cGMP-inhibited 3',5'-cyclic phosphodiesterase 3A, sequence (Q14432 whole entry): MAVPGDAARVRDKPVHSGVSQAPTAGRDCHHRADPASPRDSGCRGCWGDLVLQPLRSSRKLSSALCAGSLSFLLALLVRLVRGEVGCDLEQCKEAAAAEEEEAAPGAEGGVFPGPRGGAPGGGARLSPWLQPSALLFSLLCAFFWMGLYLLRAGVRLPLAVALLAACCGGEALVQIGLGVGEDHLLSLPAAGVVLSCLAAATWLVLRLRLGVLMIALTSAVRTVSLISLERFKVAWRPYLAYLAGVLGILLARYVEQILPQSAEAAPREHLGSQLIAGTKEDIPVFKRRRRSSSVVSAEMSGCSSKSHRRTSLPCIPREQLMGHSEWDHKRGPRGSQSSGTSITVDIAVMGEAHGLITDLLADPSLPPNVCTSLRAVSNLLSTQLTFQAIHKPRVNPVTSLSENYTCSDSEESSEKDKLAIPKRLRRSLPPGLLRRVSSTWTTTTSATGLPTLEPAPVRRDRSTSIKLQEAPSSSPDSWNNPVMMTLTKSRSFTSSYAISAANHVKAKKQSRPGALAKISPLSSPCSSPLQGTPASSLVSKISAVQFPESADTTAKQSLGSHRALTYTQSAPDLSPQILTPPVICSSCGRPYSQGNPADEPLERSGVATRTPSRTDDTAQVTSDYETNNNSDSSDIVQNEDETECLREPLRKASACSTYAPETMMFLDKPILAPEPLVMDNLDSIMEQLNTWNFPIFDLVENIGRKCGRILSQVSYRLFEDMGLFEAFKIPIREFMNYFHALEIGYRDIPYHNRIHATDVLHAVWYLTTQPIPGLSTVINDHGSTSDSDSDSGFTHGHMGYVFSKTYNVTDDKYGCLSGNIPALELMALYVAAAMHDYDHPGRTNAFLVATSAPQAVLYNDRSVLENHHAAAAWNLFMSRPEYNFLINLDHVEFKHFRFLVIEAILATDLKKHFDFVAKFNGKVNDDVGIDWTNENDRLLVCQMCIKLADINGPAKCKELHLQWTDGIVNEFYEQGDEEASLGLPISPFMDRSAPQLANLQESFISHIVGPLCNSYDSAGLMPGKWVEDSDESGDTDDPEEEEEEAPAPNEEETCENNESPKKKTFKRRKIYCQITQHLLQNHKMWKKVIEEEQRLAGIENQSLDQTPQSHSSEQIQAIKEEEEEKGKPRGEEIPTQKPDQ
Beta-1 adrenergic receptor, sequence (P08588 whole entry): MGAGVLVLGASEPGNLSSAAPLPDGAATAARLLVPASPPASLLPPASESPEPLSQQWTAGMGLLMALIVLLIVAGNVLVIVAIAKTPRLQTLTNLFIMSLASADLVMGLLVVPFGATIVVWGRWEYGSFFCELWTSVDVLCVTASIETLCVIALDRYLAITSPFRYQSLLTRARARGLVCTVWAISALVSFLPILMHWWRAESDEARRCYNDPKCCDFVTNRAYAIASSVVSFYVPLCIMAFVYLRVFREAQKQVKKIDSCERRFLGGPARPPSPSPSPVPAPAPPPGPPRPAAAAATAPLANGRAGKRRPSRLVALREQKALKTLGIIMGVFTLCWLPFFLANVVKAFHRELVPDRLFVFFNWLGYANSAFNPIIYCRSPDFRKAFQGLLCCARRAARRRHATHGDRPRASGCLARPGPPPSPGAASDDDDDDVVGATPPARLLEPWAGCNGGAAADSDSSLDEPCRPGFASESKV

| Compound | AC50 (Adenosine receptor A1) | AC50 [1] | AC50 [2] | AC50 [3] | AC50 [4] | AC50 (D(1A) dopamine receptor) | AC50 (Histamine H2 receptor) | AC50 [5] | AC50 [6] | AC50 [7] | AC50 [8] | AC50 (D(3) dopamine receptor) | AC50 [9] | AC50 (Histamine H3 receptor) |
| --- | --- | --- | --- | --- | --- | --- | --- | --- | --- | --- | --- | --- | --- | --- |
| C=C1/C(=C\C=C2/CCC[C@]3(C)[C@@H]([C@H](C)/C=C/[C@@H](O)C4CC4)CC[C@@H]23)C[C@@H](O)C[C@@H]1O [CALCIPOTRIENE] | > 30 µM | > 30 µM | > 30 µM | > 30 µM | > 30 µM | > 30 µM | > 30 µM | > 30 µM | 2.2 µM | > 30 µM | > 30 µM | > 30 µM | > 30 µM | > 30 µM |
| CC1=C(C)C(=O)C(C(CCCCCC(=O)O)c2ccccc2)=C(C)C1=O (configuration not stated) [SERATRODAST] | > 30 µM | > 30 µM | > 30 µM | > 30 µM | > 30 µM | > 30 µM | > 30 µM | > 30 µM | 1.14 µM | > 30 µM | 25 µM | > 30 µM | > 30 µM | > 30 µM |
| O=C(O)CCNC(=O)c1ccccc1 [BETAMIPRON] | > 30 µM | > 30 µM | > 30 µM | > 30 µM | > 30 µM | > 30 µM | > 30 µM | > 30 µM | > 10 µM | > 30 µM | > 30 µM | > 30 µM | > 30 µM | > 30 µM |
| CCC(COC(=O)c1cc(OC)c(OC)c(OC)c1)(c1ccccc1)N(C)C (configuration not stated) [TRIMEBUTINE] | > 30 µM | > 30 µM | 21 µM | > 30 µM | 15 µM | > 30 µM | > 30 µM | 0.19 µM | > 30 µM | > 30 µM | > 30 µM | > 30 µM | > 30 µM | > 30 µM |
| CCCCCCCCCCCCCCCCCCCCCC(=O)Nc1ccn([C@@H]2O[C@H](CO)[C@@H](O)[C@@H]2O)c(=O)n1 [ENOCITABINE] | > 30 µM | > 30 µM | > 30 µM | > 30 µM | > 30 µM | > 30 µM | > 30 µM | > 30 µM | > 30 µM | > 30 µM | > 30 µM | > 30 µM | > 30 µM | > 30 µM |
| CCN(CC)C(=O)Nc1ccc(OCC(O)CNC(C)(C)C)c(C(C)=O)c1 (configuration not stated) [CELIPROLOL] | > 30 µM | 0.076 µM | > 30 µM | > 30 µM | > 30 µM | > 30 µM | > 30 µM | > 30 µM | > 30 µM | > 30 µM | > 30 µM | > 30 µM | > 30 µM | > 30 µM |
| CCOC(=O)O[C@]1(C(=O)OCCl)CC[C@H]2[C@@H]3CCC4=CC(=O)C=C[C@]4(C)[C@H]3[C@@H](O)C[C@@]21C [LOTEPREDNOL ETABONATE] | > 30 µM | > 30 µM | > 30 µM | > 30 µM | > 30 µM | > 30 µM | > 30 µM | > 30 µM | > 30 µM | > 30 µM | > 30 µM | > 30 µM | > 30 µM | > 30 µM |
| CC(=O)SC[C@@H](C)C(=O)N1CCC[C@H]1C(=O)N[C@@H](Cc1ccccc1)C(=O)O | > 30 µM | > 30 µM | > 30 µM | > 30 µM | > 30 µM | > 30 µM | > 30 µM | 21 µM | > 30 µM | > 30 µM | > 30 µM | > 30 µM | > 30 µM | > 30 µM |
